Source: PMC7650622, “3D-Printed Bubble-Free Perfusion Cartridge System for Live-Cell Imaging” (Sensors (Basel, Switzerland), 2020)

Molecular target: T1, Or13a cells (OR from Drosophila melanogaster with Orco) (Drosophila melanogaster, UniProt Q9VXL0)
T1 construct: with Odorant receptor coreceptor
T1 sequence (Q9VXL0 1-418): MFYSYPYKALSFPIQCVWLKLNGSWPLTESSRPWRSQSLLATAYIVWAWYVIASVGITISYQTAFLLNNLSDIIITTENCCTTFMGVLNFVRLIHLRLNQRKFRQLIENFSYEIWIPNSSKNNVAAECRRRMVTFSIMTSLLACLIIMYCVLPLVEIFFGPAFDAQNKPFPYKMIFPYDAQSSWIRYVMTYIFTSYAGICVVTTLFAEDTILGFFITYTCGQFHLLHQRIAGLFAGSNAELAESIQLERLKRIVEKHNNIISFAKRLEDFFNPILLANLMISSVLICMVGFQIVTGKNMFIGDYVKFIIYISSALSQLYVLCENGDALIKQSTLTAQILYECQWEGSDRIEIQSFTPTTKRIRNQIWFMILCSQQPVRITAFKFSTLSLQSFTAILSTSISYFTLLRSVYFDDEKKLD
T1 sequence (Q9VNB5 1-486 partner): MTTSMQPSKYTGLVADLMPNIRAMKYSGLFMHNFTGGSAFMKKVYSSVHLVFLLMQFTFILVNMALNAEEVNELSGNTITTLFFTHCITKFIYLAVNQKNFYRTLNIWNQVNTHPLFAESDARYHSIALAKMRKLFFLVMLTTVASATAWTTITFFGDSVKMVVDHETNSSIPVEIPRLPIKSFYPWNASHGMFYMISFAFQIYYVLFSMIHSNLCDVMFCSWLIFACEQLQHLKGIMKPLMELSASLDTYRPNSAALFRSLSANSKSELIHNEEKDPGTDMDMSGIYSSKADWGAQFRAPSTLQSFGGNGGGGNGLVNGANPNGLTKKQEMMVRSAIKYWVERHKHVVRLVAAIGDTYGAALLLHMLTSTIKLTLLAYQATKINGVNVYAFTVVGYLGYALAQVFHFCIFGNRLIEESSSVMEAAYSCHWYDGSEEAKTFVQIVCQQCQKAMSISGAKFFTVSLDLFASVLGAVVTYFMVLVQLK
Test: GCaMP6s calcium imaging of Sf21 cells, dose-response
Assay type: cell-based

C=CC(O)CCCCC (stereo not shown) [1-octen-3-ol]
EC50: 8.37 µM
